Measured values taken from patent US20120028897A1, “METHODS AND COMPOSITIONS FOR THE TREATMENT OF FLUID RETENTION DISORDERS” (priority 2008, published 2012).

What was measured:
Assay type in all cases: in vivo, rat
anesthetized rats [1] = assay: Renal potassium excretion during and after iv peptide infusion in anesthetized rats
Experimental: Rats were not fasted prior to clearance experiments and ranged in weight from 250-340 g at the time of study. Anesthesia was induced with an intraperitoneal injection of pentobarbital sodium (55 mg/kg BW) and maintained at a surgical plane by intermittent intravenous supplementation. Core temperature was maintained at 37° C. by a servo-controlled, heated operating table. Animals breathed spontaneously through a PE240 cannula inserted into the trachea. A jugular vein was catheterized with PE50 cannula tubing for intravenous infusion of isotonic saline containing FITC-labeled inulin (0.4% W/V, Sigma, St Louis Mo.) and two PE10 cannulae, one for supplemental anesthetic and the other for peptide infusions (described below in the experimental protocol section). The ureters were exposed through a midline ventral incision and cannulated with PE10 tubing about one cm from each kidney. Urine was collected over 20 min periods and the volume estimated by weight. A femoral artery was cannulated with PE50 tubing for continuous measurement of arterial blood pressure and intermittent blood samples (50 μl), taken at the mid point of each urine collection.
(§1) Arterial blood pressure was measured with a pressure transducer connected to a cardiovascular analyzer (Model 50110, Stoelting Instruments Wood Dale, Ill.). Left renal blood flow was measured in some rats with a flow probe positioned on the left renal artery and connected to a blood flow monitor (model 1 PRB probe and model T420 monitor, Transonic Systems Inc. Ithaca N.Y.). Arterial pressure, heart rate, and renal blood flow were digitized with an A/D converter (Keithley instruments, Cleveland, Ohio Model KUSB 3100) for display and storage on a Windows-based personal computer using open layers data acquisition software (Dtx_Ez, Data Translation Inc, Marlboro, Mass.). Sodium and potassium concentrations in plasma and urine were measured by flame photometry (Model 943, Instrumentation Laboratory Co., Lexington Mass.). Glomerular filtration rate (GFR) was measured as the renal clearance rate of FITC-labeled inulin
(§2) After post-surgical equilibration (−60 min) and three 20 min control clearance periods, huUgnA or B was infused into the jugular vein at 10 μl/min over a 60 min period, followed by a return to isotonic saline for the remainder of the experiment. The infused doses of huUgnA were 12, 25, 50, 100, or 200 nmol/kg BW in a total of 38 rats; huUgnB doses were 9, 18, 35, 70, and 140 nmol/kg BW in 35 rats. A UgnA mimetic, E. coli STh (ST-core), was infused into a third group of 32 rats at doses of 17, 32, 66, 133, and 266 nmol/kg. Renal excretory responses to these infusions were slow to develop and long lasting, so clearance periods were continued for 2-3 hr after the termination of the peptide infusion. This protracted time course limited protocols to one dose of one peptide in each rat. A control group of 10 rats received isotonic saline at 10 μl/min in place of the peptide infusion, but was otherwise treated in the same way as the experimental groups.
Sodium and potassium excretion rates are expressed as absolute values (UNaV and UKV) or factored by filtered load to provide fractional excretion (FENa and FEK). Glomerular filtration rate (GFR) was equated with inulin clearance. The net natriuretic response to peptide infusions was assessed by summing total Na excretion during infusion and post-infusion collection periods in each rat after subtraction of corresponding mean values obtained from the control group. The cumulative net excretion obtained in this way provides a measure of the natriuretic response to each dose of peptide infused. Results from both kidneys were averaged for each rat before calculating group means±sem.
Group comparisons were made with one way analysis of variance (ANOVA) using peptide doses as column variables. […]

anesthetized rats [2] = assay: Glomerular filtration rate (FITC-inulin clearance) during and after iv peptide infusion
Experimental: All rats received a continuous intravenous infusion (10 μl/min/100 g BW) of isotonic saline containing FITC-labeled inulin for measurement of inulin clearance. Uncongugated FITC label and small inulin polymers were removed from the inulin solution by overnight dialysis against isotonic saline (SpectraPor 6 dialysis membrane, 1 kDa cutoff-limit, Spectrum Laboratories, Rancho Domingo, Calif.). Undissolved particulates were removed from the solution by filtration through a […] filter before each experiment (Steriflip, Millipore Inc. Billerica, Mass.). At least one hr was allowed for equilibration before the start of urine collections, at which point plasma inulin concentration had stabilized at an average value of 30±3 μg/ml.
as §1, §2
This assay was based on the method described by Lorenz and Gruenstein. Urine samples were diluted with hepes-buffered saline (3, 5, 10, or 20 fold, based on urine flow) to neutralize the pH and bring the intensity of FITC emissions into detector range. Small volumes (3-5 μl) of diluted urine and undiluted plasma samples were drawn into constant bore capillary tubes (10 μl Microcap tubes, Drummond Scientific Company, Broomall Pa.) and sealed at each end with water-saturated mineral oil. FITC emission intensity was measured by imaging each sample at 10× magnification with an epifluorescence microscope (Axiovert S100TV, Carl Zeiss Inc. Thornwood, N.Y.) fitted with a CCD camera (Orca II, Hamamatsu Inc. Bridgewater, N.J.) controlled by Metamorph imaging software (Molecular Devices, Sunnyvale, Calif.). Fluorescence intensities were measured as mean pixel intensity obtained from a consistent central region of each sample during a 25 or 500 msec exposure for urine and plasma, respectively. Background intensities were measured in the same way using bladder urine and tail vein plasma collected from the same rat before the beginning of inulin infusion. Inulin concentrations in plasma and urine samples were calculated from a standard curve prepared from the infusion solution used in each experiment. […]

anesthetized rats [3] = assay: Renal blood flow (flow probe on left renal artery)
Experimental: as §1, §2

**Q.** Which results are given for CC(C)C[C@H](NC(=O)[C@@H]1CSSC[C@@H]2NC(=O)[C@H](CC(C)C)NC(=O)[C@H](CCC(=O)O)NC(=O)[C@@H](NC(=O)[C@H](CC(=O)O)NC(=O)[C@H](CC(=O)O)NC(=O)[C@@H](N)CC(N)=O)CSSC[C@H](NC(=O)[C@H](C)NC(=O)[C@H](C(C)C)NC(=O)[C@H](CC(N)=O)NC(=O)[C@H](C(C)C)NC2=O)C(=O)N[C@@H]([C@@H](C)O)C(=O)NCC(=O)N1)C(=O)O (single isomer, unassigned) [huUgnA, Asn Asp Asp Cys Glu Leu Cys Val Asn Val Ala Cys Thr Gly Cys Leu, reference compound]?
**A.** increase in UKV during or after infusion (anesthetized rats [1]; any dose tested): no statistically significant increases; FEK (fractional potassium excretion) (anesthetized rats [1]; huUgnA 12 nmol, Infuse): 29.8 ± 3.6 % of filtered; UKV (potassium excretion) (anesthetized rats [1]; huUgnA 12 nmol, Infusion): 1097 ± 54 nEq/min/g KW; FEK (fractional potassium excretion) (anesthetized rats [1]; huUgnA 12 nmol, Post-infuse): 34.9 ± 2.7 % of filtered; UKV (potassium excretion) (anesthetized rats [1]; huUgnA 12 nmol, Post-infuse): 1299 ± 51 nEq/min/g KW; FEK (fractional potassium excretion) (anesthetized rats [1]; huUgnA 12 nmol, Pre-infuse): 18.8 ± 2.3 % of filtered; UKV (potassium excretion) (anesthetized rats [1]; huUgnA 12 nmol, Pre-infuse): 709 ± 74 nEq/min/g KW; FEK (fractional potassium excretion) (anesthetized rats [1]; huUgnA 25 nmol, Infuse): 40.7 ± 3.5 % of filtered; UKV (potassium excretion) (anesthetized rats [1]; huUgnA 25 nmol, Infusion): 1292 ± 80 nEq/min/g KW; FEK (fractional potassium excretion) (anesthetized rats [1]; huUgnA 25 nmol, Post-infuse): 46.5 ± 3.8 % of filtered; UKV (potassium excretion) (anesthetized rats [1]; huUgnA 25 nmol, Post-infuse): 1309 ± 68 nEq/min/g KW; FEK (fractional potassium excretion) (anesthetized rats [1]; huUgnA 25 nmol, Pre-infuse): 25.6 ± 2.4 % of filtered; UKV (potassium excretion) (anesthetized rats [1]; huUgnA 25 nmol, Pre-infuse): 780 ± 69 nEq/min/g KW; FEK (fractional potassium excretion) (anesthetized rats [1]; huUgnA 50 nmol, Infuse): 32.0 ± 2.7 % of filtered; UKV (potassium excretion) (anesthetized rats [1]; huUgnA 50 nmol, Infusion): 988 ± 66 nEq/min/g KW; FEK (fractional potassium excretion) (anesthetized rats [1]; huUgnA 50 nmol, Post-infuse): 36.3 ± 3.6 % of filtered; UKV (potassium excretion) (anesthetized rats [1]; huUgnA 50 nmol, Post-infuse): 1180 ± 57 nEq/min/g KW; FEK (fractional potassium excretion) (anesthetized rats [1]; huUgnA 50 nmol, Pre-infuse): 20.8 ± 2.1 % of filtered; UKV (potassium excretion) (anesthetized rats [1]; huUgnA 50 nmol, Pre-infuse): 722 ± 52 nEq/min/g KW; FEK (fractional potassium excretion) (anesthetized rats [1]; huUgnA 100 nmol, Infuse): 28.0 ± 3.5 % of filtered; UKV (potassium excretion) (anesthetized rats [1]; huUgnA 100 nmol, Infusion): 878 ± 60 nEq/min/g KW; FEK (fractional potassium excretion) (anesthetized rats [1]; huUgnA 100 nmol, Post-infuse): 29.9 ± 2.9 % of filtered; UKV (potassium excretion) (anesthetized rats [1]; huUgnA 100 nmol, Post-infuse): 970 ± 72 nEq/min/g KW; FEK (fractional potassium excretion) (anesthetized rats [1]; huUgnA 100 nmol, Pre-infuse): 19.3 ± 2.5 % of filtered; UKV (potassium excretion) (anesthetized rats [1]; huUgnA 100 nmol, Pre-infuse): 602 ± 51 nEq/min/g KW; FEK (fractional potassium excretion) (anesthetized rats [1]; huUgnA 200 nmol, Infuse): 40.8 ± 7.7 % of filtered; UKV (potassium excretion) (anesthetized rats [1]; huUgnA 200 nmol, Infusion): 1203 ± 161 nEq/min/g KW; UKV (potassium excretion) (anesthetized rats [1]; huUgnA 200 nmol, Post-infuse): 1380 ± 73 nEq/min/g KW; FEK (fractional potassium excretion) (anesthetized rats [1]; huUgnA 200 nmol, Post-infuse, *** p<0.005 vs time control): 57.5 ± 6.7*** % of filtered; FEK (fractional potassium excretion) (anesthetized rats [1]; huUgnA 200 nmol, Pre-infuse): 27.7 ± 5.9 % of filtered; UKV (potassium excretion) (anesthetized rats [1]; huUgnA 200 nmol, Pre-infuse): 860 ± 118 nEq/min/g KW; FEK vs control (anesthetized rats [1]; post infusion period, only after the highest doses): increased over control levels; GFR (glomerular filtration rate) (anesthetized rats [2]; huUgnA 12 nmol, Infusion): 869 ± 64 μl/min/g KW; GFR (glomerular filtration rate) (anesthetized rats [2]; huUgnA 12 nmol, Post-infuse): 923 ± 66 μl/min/g KW; GFR (glomerular filtration rate) (anesthetized rats [2]; huUgnA 12 nmol, Pre-infuse): 895 ± 51 μl/min/g KW; GFR (glomerular filtration rate) (anesthetized rats [2]; huUgnA 25 nmol, Infusion): 886 ± 66 μl/min/g KW; GFR (glomerular filtration rate) (anesthetized rats [2]; huUgnA 25 nmol, Post-infuse): 823 ± 49 μl/min/g KW; GFR (glomerular filtration rate) (anesthetized rats [2]; huUgnA 25 nmol, Pre-infuse): 820 ± 40 μl/min/g KW; GFR (glomerular filtration rate) (anesthetized rats [2]; huUgnA 50 nmol, Infusion): 817 ± 53 μl/min/g KW; GFR (glomerular filtration rate) (anesthetized rats [2]; huUgnA 50 nmol, Post-infuse): 869 ± 49 μl/min/g KW; GFR (glomerular filtration rate) (anesthetized rats [2]; huUgnA 50 nmol, Pre-infuse): 858 ± 52 μl/min/g KW; GFR (glomerular filtration rate) (anesthetized rats [2]; huUgnA 100 nmol, Infusion): 858 ± 55 μl/min/g KW; GFR (glomerular filtration rate) (anesthetized rats [2]; huUgnA 100 nmol, Post-infuse): 906 ± 38 μl/min/g KW; GFR (glomerular filtration rate) (anesthetized rats [2]; huUgnA 100 nmol, Pre-infuse): 807 ± 62 μl/min/g KW; GFR (glomerular filtration rate) (anesthetized rats [2]; huUgnA 200 nmol, Infusion): 827 ± 61 μl/min/g KW; GFR (glomerular filtration rate) (anesthetized rats [2]; huUgnA 200 nmol, Post-infuse): 849 ± 24 μl/min/g KW; GFR (glomerular filtration rate) (anesthetized rats [2]; huUgnA 200 nmol, Pre-infuse): 857 ± 43 μl/min/g KW; Renal blood flow (RBF) (anesthetized rats [3]; 25 nmol UgnA, before (first value of change), n=4): 2.7+0.3 ml/min/g KW; Renal blood flow (RBF) (anesthetized rats [3]; after 25 nmol UgnA, p<0.001, n=4): 3.2+0.1 ml/min/g KW
